Columns and labels:
[1] = test system: PARP cleavage in HaCat cells; test: Western blot detection of PARP cleavage, HaCat; format: cell-based, human; conditions: 100 μM, one day; HPV-negative HaCat cells (mutant p53)
Protocol: (§1) 10^6 cells were plated on 10 cm petri-dishes with 10 ml medium and after attachment overnight, treated with 100 μM C16 or 0.5% DMSO for one day. At the time of cell harvest most C16-treated cells were still attached to the plate. Cells were harvested using a rubber policeman and lysed in 10 mM Hepes buffer, pH 7.2, 150 mM NaCl, 0.2% Nonidet-P40 (NP40) and 1 mM PMSF, followed by centrifugation. 20 μg of protein was loaded onto a 12% SDS-polyacrylamide gel, transferred to a nitrocellulose membrane and the membrane blocked with 5% nonfat dry milk in 20 mM Tris-Cl, pH 7.6, 150 mM NaCl, 0.05% Tween-20 overnight at 4° C. The membrane was then probed with primary antibodies against p53 (Santa Cruz Biotechnology, Santa Cruz, Calif.), β-actin (Sigma, St. Louis, Mo.) or PARP (C210, Centre de Research du Chul, Quebec, Canada) and followed by incubation with horseradish peroxidase-conjugated secondary antibody (Pierce, Rockford, Ill.). Finally, the blot was treated with an enhanced chemiluminescent detection substrate (SuperSignal, Pierce) and autoradiographed.
(§2) Increases in P53 expression are known to be associated with programmed cell death (apoptosis) (29), therefore PARP cleavage, a hallmark of apoptosis was examined in C16 treated cells.

[2] = molecular target: T1, HPV-16-E6 (recombinant GST-E6 protein) (Human papillomavirus type 16, UniProt P03126); test: biochemical; format: biochemical
T1 construct: The full length HPV16 E6 gene was amplified via polymerase chain reaction and cloned in the vector pGeX4T2; made in house; host or cells: E. coli strain AB1899
From the text: Where the chelated metal is zinc, zinc release can be measured as an increase in the fluorescence of the zinc-selective fluorophore TSQ (N-(6-methoxy-8-quinolyl)-p-toluenesulfonamide) (18) in the presence of the protein and the active compound (TSQ assay).
In such an assay, the increase in fluorescence measured can be described as a percentage of the increase in fluorescence observed for a positive control compound which provides 100% zinc release. A suitable positive control compound is H2O2. Preferred compounds which may be useful in the present invention are those which release at least 30% of the chelated zinc as measured by the TSQ assay. Particularly preferred compounds for use in the present invention are those which release at least 40% of the chelated zinc, more preferably at least 50%.
In earlier studies, reduced glutathione (GSH) was required to elute recombinant glutathione sulfhydryl transferase E6 (recombinant (GST-E6)) protein during the purification process. However, the reducing activity of the GSH sulfhydryl groups protected GST-E6 protein from the chemical attack by agents, such as the disulphide based organic compounds of Formula (I) and (II). […] Individual assays were done in the presence of 9 μg GST-E6 protein, corresponding to a concentration of 1 μM GST-E6 protein and 2 μM bound zinc, assuming the presence of two Zn ions per protein.
Release of zinc from HPV-16-E6 was monitored by the change in fluorescence of the zinc-selective fluorophore TSQ (N-6-methoxy-8-quinolyl)-p-toluenesulfonamide), (Molecular Probes, Eugene, Oreg.) by modification of published procedures (25, 26, 27). In a total reaction volume of 200 μl, 9 μg (1 μM) recombinant GST-E6 protein (corresponding to a concentration of 1 μM), bound to glutathione-sepharose beads, were incubated with 10 μM of each compound or 0.6% (170 mM) H2O2 in TSQ-assay buffer (10 mM sodium phosphate buffer pH7.0, 10% glycerol) for 2 hours at room temperature (200 μl total volume in 96-well plates). Immediately after addition of 100 μM TSQ, the increase in fluorescence was measured on a SLT Fluostar (355 nm excitation filter and 460 nm emission filter, Tecan, Salzburg).
Values given are % values of Zinc release. The relative fluorescence units (RFU) were normalized to the amount of zinc released by H2O2 (regarded as 100%). The concentration of compound used was 10 μM for C27–C35, 13 μM for C37–C83, H2O2 was used at 0.3% for C27–C35 and 0.2% for C37–C83.

[3] = test system: PARP cleavage in HeLa cells; test: Western blot detection of PARP cleavage, HeLa; format: cell-based, human; conditions: 100 μM, one day
Protocol: as §1, §2

T1 sequence (P03126 whole entry): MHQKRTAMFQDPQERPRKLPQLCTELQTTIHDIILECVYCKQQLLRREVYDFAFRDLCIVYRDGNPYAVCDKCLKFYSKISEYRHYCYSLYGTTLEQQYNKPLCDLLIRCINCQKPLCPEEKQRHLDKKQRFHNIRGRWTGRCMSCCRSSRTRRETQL

For `C1CN(SSN2CCOCC2)CCO1` [Compound C16], the PARP cleavage [1] was “not”, the “zinc release in original TSQ assays” value ([2]; GSH present at 5–10 mM) was “capable of releasing zinc” and the activation at 10 µM ([2]; read-out: TSQ % (% values of Zinc release)) was 63.2%. The PARP cleavage [3] was “PARP cleavage was observed”.

From patent publication US7019000B1, “Method of treating a disease condition caused or exacerbated by an HPV” (Institute of Molecular & Cell Biology, priority 1998, dated 2006)
